In ChEMBL document CHEMBL1629601, “In vitro susceptibility of field isolates of Leishmania donovani to Miltefosine and amphotericin B: correlation with sodium antimony gluconate susceptibility and implications for treatment in areas of endemicity” (2009):
≈ marks a conversion by molar mass, not a printed value.

How the values were obtained:
Assay type in all cases: functional
Settings in all cases: read-out: ED50 (the source's name)
[1] = test system: Leishmania donovani; assay: Antimicrobial activity against Leishmania donovani K80 promastigote
[2] = test system: Leishmania donovani; assay: Antimicrobial activity against Leishmania donovani K435 promastigote
[3] = test system: Leishmania donovani; assay: Antimicrobial activity against Leishmania donovani K516 promastigote
[4] = test system: Leishmania donovani; assay: Antimicrobial activity against Leishmania donovani K192 amastigote
[5] = test system: Leishmania donovani; assay: Antimicrobial activity against Leishmania donovani K111 promastigote
[6] = test system: Leishmania donovani; assay: Antimicrobial activity against Leishmania donovani K135 amastigote
[7] = test system: Leishmania donovani; assay: Antimicrobial activity against Leishmania donovani K131 amastigote
[8] = test system: Leishmania donovani; assay: Antimicrobial activity against Leishmania donovani K59 amastigote
[9] = test system: Leishmania donovani; assay: Antimicrobial activity against Leishmania donovani K216 amastigote
[10] = test system: Leishmania donovani; assay: Antimicrobial activity against Leishmania donovani K149 promastigote
[11] = test system: Leishmania donovani; assay: Antimicrobial activity against Leishmania donovani LdAG83 promastigote
[12] = test system: Leishmania donovani; assay: Antimicrobial activity against Leishmania donovani K192 promastigote
[13] = test system: Leishmania donovani; assay: Antimicrobial activity against Leishmania donovani K131 promastigote
[14] = test system: Leishmania donovani; assay: Antimicrobial activity against Leishmania donovani K481 promastigote
[15] = test system: Leishmania donovani; assay: Antimicrobial activity against Leishmania donovani K251 promastigote
[16] = test system: Leishmania donovani; assay: Antimicrobial activity against Leishmania donovani LdAG83 amastigote
[17] = test system: Leishmania donovani; assay: Antimicrobial activity against Leishmania donovani K59 promastigote
[18] = test system: Leishmania donovani; assay: Antimicrobial activity against Leishmania donovani K251 amastigote
[19] = test system: Leishmania donovani; assay: Antimicrobial activity against Leishmania donovani K133 promastigote
[20] = test system: Leishmania donovani; assay: Antimicrobial activity against Leishmania donovani K435 amastigote
[21] = test system: Leishmania donovani; assay: Antimicrobial activity against Leishmania donovani K133 amastigote
[22] = test system: Leishmania donovani; assay: Antimicrobial activity against Leishmania donovani K132 promastigote
[23] = test system: Leishmania donovani; assay: Antimicrobial activity against Leishmania donovani K516 amastigote
[24] = test system: Leishmania donovani; assay: Antimicrobial activity against Leishmania donovani K429 amastigote
[25] = test system: Leishmania donovani; assay: Antimicrobial activity against Leishmania donovani K216 promastigote
[26] = test system: Leishmania donovani; assay: Antimicrobial activity against Leishmania donovani K481 amastigote
[27] = test system: Leishmania donovani; assay: Antimicrobial activity against Leishmania donovani K111 amastigote
[28] = test system: Leishmania donovani; assay: Antimicrobial activity against Leishmania donovani K498 promastigote
[29] = test system: Leishmania donovani; assay: Antimicrobial activity against Leishmania donovani K509 amastigote
[30] = test system: Leishmania donovani; assay: Antimicrobial activity against Leishmania donovani K80 amastigote
[31] = test system: Leishmania donovani; assay: Antimicrobial activity against Leishmania donovani K439 amastigote
[32] = test system: Leishmania donovani; assay: Antimicrobial activity against Leishmania donovani K149 amastigote
[33] = test system: Leishmania donovani; assay: Antimicrobial activity against Leishmania donovani K429 promastigote
[34] = test system: Leishmania donovani; assay: Antimicrobial activity against Leishmania donovani K135 promastigote
[35] = test system: Leishmania donovani; assay: Antimicrobial activity against Leishmania donovani K439 promastigote
[36] = test system: Leishmania donovani; assay: Antimicrobial activity against Leishmania donovani K417 amastigote
[37] = test system: Leishmania donovani; assay: Antimicrobial activity against Leishmania donovani K417 promastigote
[38] = test system: Leishmania donovani; assay: Antimicrobial activity against Leishmania donovani K498 amastigote
[39] = test system: Leishmania donovani; assay: Antimicrobial activity against Leishmania donovani K132 amastigote

EC50 [1]: 0.5 µg/mL (≈ 0.541 µM) | EC50 [2]: 0.57 µg/mL (≈ 0.617 µM) | EC50 [3]: 1.26 µg/mL (≈ 1.36 µM) | EC50 [4]: 0.67 µg/mL (≈ 0.725 µM) | EC50 [5]: 1.02 µg/mL (≈ 1.1 µM) | EC50 [6]: 0.25 µg/mL (≈ 0.271 µM) | EC50 [7]: 0.35 µg/mL (≈ 0.379 µM) | EC50 [8]: 0.18 µg/mL (≈ 0.195 µM) | EC50 [9]: 0.25 µg/mL (≈ 0.271 µM) | EC50 [10]: 1.46 µg/mL (≈ 1.58 µM) | EC50 [11]: 0.023 µg/mL (≈ 0.0249 µM) | EC50 [12]: 0.78 µg/mL (≈ 0.844 µM) | EC50 [13]: 0.43 µg/mL (≈ 0.465 µM) | EC50 [14]: 0.69 µg/mL (≈ 0.747 µM) | EC50 [15]: 1.42 µg/mL (≈ 1.54 µM) | EC50 [16]: 0.017 µg/mL (≈ 0.0184 µM) | EC50 [17]: 0.5 µg/mL (≈ 0.541 µM) | EC50 [18]: 0.55 µg/mL (≈ 0.595 µM) | EC50 [19]: 0.65 µg/mL (≈ 0.703 µM) | EC50 [20]: 0.17 µg/mL (≈ 0.184 µM) | EC50 [21]: 0.21 µg/mL (≈ 0.227 µM) | EC50 [22]: 1.22 µg/mL (≈ 1.32 µM) | EC50 [23]: 0.62 µg/mL (≈ 0.671 µM) | EC50 [24]: 0.37 µg/mL (≈ 0.4 µM) | EC50 [25]: 0.52 µg/mL (≈ 0.563 µM) | EC50 [26]: 0.55 µg/mL (≈ 0.595 µM) | EC50 [27]: 0.2 µg/mL (≈ 0.216 µM) | EC50 [28]: 1.16 µg/mL (≈ 1.26 µM) | EC50 [29]: 0.65 µg/mL (≈ 0.703 µM) | EC50 [30]: 0.18 µg/mL (≈ 0.195 µM) | EC50 [31]: 0.77 µg/mL (≈ 0.833 µM) | EC50 [32]: 0.28 µg/mL (≈ 0.303 µM) | EC50 [33]: 1.34 µg/mL (≈ 1.45 µM) | EC50 [34]: 0.31 µg/mL (≈ 0.335 µM) | EC50 [35]: 1.62 µg/mL (≈ 1.75 µM) | EC50 [36]: 0.44 µg/mL (≈ 0.476 µM) | EC50 [37]: 0.69 µg/mL (≈ 0.747 µM) | EC50 [38]: 0.54 µg/mL (≈ 0.584 µM) | EC50 [39]: 0.22 µg/mL (≈ 0.238 µM)
SMILES: C[C@@H]1[C@H](O)[C@@H](C)/C=C/C=C/C=C/C=C/C=C/C=C/C=C/[C@H](O[C@@H]2O[C@H](C)[C@@H](O)[C@H](N)[C@@H]2O)C[C@@H]2O[C@](O)(C[C@@H](O)C[C@@H](O)[C@H](O)CC[C@@H](O)C[C@@H](O)CC(=O)O[C@H]1C)C[C@H](O)[C@H]2C(=O)O [AMPHOTERICIN B]
